Reference: patent US12679811B2, “Microcrystalline diketopiperazine compositions and methods” (MannKind Corporation, priority 2013, dated 2026)

Test: Solubility of FDKP as a function of pH
Format: physicochemical

- solubility (at neutral or basic pH): readily soluble
- solubility (in acid): low solubility
Compound: O=C(O)/C=C/C(=O)NCCCCC1NC(=O)C(CCCCNC(=O)/C=C/C(=O)O)NC1=O (centres unmarked) [FDKP, 3,6-bis(N-fumaryl-4-aminobutyl)-2,5-diketopiperazine]
